Data on 22 compounds can be found in patent US20240208912A1 (Mirati Therapeutics, Inc., priority 2021, published 2024).

Read-outs that look alike come from different tables or passages of the source.

The target in one experiment is T1, PRMT5/MEP50 complex (Homo sapiens, UniProt O14744).
T1 construct: purchased Reaction Biology Corporation
In words: PRMT5:MEP50 HotSpot Assay (full-length histone H2A substrate, plus and minus MTA). It counts as biochemical. Conditions: IC50 + 2 μM MTA, in the presence of 2 μM MTA. As for the experimental part: The PRMT5 inhibitory activity of compounds of the present invention was determined using either a PRMT5:MEP50 FlashPlate Assay (Reaction Biology Corporation) or a PRMT5:MEP50 HotSpot Assay (Reaction Biology Corporation).
The assay uses recombinant full-length hi stone H2A as the PRMT5 substrate. […] The reaction was stopped and transferred to filter paper for detection. The amount of tritiated H2A in each sample was determined using a scintillation counter.

The subject of experiment [1] is HCT116 homozygous MTAP knockout cells. In words: Proliferation assay (CellTiter-Glo, 10 days) in HCT116 homozygous MTAP knockout cells. Type of experiment: cell-based. Particulars: CellTiter-Glo after 10 days of treatment, read-out: Proliferation IC50 (nM) HCT116 MTAP_KO. How it is done: HCT116 cells were genetically engineered to knock out the function of both MTAP alleles using a CRISPR/Cas9 system and an sgRNA targeting the MTAP gene. Following Cas9/MTAP sgRNA transduction, clones were screened to confirm that each allele of the MTAP gene had been inactivated (i.e., homozygous MTAP knock out) creating an MTAP-deficient cell.
Control samples were analyzed in parallel.
Briefly, on Day 0, 250 HCT116 parental or HCT116 homozygous MTAP knockout cell were seeded in 96 well plates in McCoy's 5A supplemented with […] fetal bovine serum and pen/strep and the cells were incubated overnight at 37° C. plus 5% CO2.
The following day, cells were treated with DMSO vehicle control or a dose response of PRMT5 inhibitors and incubated at 37 C plus 5% CO2 for five days. On Day 6, the cells were trypsinized and split 1:10 into new 96-well plates with fresh medium containing the same concentration of PRMT5 inhibitor and incubated for an additional 5 days at 37° C. plus 5% CO^2.
On Day 11, the viability of the cells was measured using a CTG assay kit (CellTiter-Glo; Promega cat.no G7573) in accordance with the manufacturer's instructions. The IC50 values for each compound after 10 days of treatment were calculated using GraphPad PRISM software.
Background: Cellular ATP, detected with luciferase, serves as a proxy for viable cell number.

T1 sequence (O14744 2-637 limits assumed): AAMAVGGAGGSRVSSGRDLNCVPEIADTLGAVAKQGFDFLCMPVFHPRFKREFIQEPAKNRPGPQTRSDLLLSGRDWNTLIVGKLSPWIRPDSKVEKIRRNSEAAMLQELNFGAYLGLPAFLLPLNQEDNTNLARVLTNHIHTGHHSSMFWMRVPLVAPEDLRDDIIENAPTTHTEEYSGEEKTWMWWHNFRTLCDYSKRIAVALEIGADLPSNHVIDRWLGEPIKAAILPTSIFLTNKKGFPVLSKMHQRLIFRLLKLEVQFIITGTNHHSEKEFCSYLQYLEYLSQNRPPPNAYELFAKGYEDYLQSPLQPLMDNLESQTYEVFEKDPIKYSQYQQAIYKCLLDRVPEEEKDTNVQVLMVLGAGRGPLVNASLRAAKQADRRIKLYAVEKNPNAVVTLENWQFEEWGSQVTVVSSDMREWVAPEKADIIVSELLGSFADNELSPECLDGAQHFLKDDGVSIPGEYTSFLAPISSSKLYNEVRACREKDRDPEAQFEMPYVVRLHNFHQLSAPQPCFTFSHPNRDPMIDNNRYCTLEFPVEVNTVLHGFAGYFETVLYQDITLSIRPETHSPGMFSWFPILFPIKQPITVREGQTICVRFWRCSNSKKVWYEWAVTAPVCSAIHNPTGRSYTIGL
T1 sequence (Q9BQA1 2-342 partner limits assumed): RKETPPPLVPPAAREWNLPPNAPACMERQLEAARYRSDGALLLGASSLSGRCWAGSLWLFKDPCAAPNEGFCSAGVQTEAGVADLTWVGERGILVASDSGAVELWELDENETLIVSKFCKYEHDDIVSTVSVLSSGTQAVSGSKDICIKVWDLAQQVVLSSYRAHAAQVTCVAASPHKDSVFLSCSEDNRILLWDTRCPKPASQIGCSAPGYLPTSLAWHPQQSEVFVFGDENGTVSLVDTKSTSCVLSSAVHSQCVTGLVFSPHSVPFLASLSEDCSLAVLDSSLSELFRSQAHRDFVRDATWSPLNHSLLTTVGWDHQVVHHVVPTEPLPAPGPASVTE

As to `CCn1ncc(-c2ccc3c(=O)[nH]nc(CN)c3c2)c1-c1sc2ccccc2c1C#N` [Example 19-1, 2-[4-[4-(aminomethyl)-1-oxo-2H-phthalazin-6-yl]-2-ethyl-pyrazol-3-yl]benzothiophene-3-carbonitrile], the IC50 on PRMT5/MEP50 complex was 146 nM; in experiment [1] (Homo sapiens, HCT-116, 240 h) it was 587 nM.
As to `Cn1ncc(-c2cc(O)c3c(=O)[nH]nc(CN)c3c2)c1-c1sc2ccccc2c1C#N` [Example 15-6, 2-(4-(4-(aminomethyl)-8-hydroxy-1-oxo-1,2-dihydrophthalazin-6-yl)-1-methyl-1H-pyrazol-5-yl)benzo[b]thiophene-3-carbonitrile], the IC50 on PRMT5/MEP50 complex was 235 nM; in experiment [1] (Homo sapiens, HCT-116, 240 h) it was 138 nM.
Taken in the same sequence, the figures for `Cn1ncc(-c2ccc3c(=O)[nH]nc(C4CCN4)c3c2)c1-c1sc2ccccc2c1C#N` (stereo not drawn) [Example 9-11, 2-(4-(4-(azetidin-2-yl)-1-oxo-1,2-dihydrophthalazin-6-yl)-1-methyl-1H-pyrazol-5-yl)benzo[b]thiophene-3-carbonitrile] were 1440 nM and 2370 nM.
For the compound `CCOc1cc(-c2cnn(C)c2-c2c(F)c(C)cc(OC3CC3)c2C#N)cc2c(CN)n[nH]c(=O)c12` (single isomer, unassigned) [Example 16-76, (M)-2-[4-[4-(aminomethyl)-8-ethoxy-1-oxo-2H-phthalazin-6-yl]-2-methyl-pyrazol-3-yl]-6-(cyclopropoxy)-3-fluoro-4-methyl-benzonitrile], the IC50 at PRMT5/MEP50 complex turned out to be 111 nM; in experiment [1], 41 nM.
`Cc1c(F)c(-c2c(-c3cc(Cl)c4c(=O)[nH]nc(CN)c4c3)cnn2C)c(C#N)c2ncc(Cl)cc12` (atropisomer, axis not shown; (P)) [Example 16-97, (P)-7-(4-(4-(aminomethyl)-8-chloro-1-oxo-1,2-dihydrophthalazin-6-yl)-1-methyl-1H-pyrazol-5-yl)-3-chloro-6-fluoro-5-methylquinoline-8-carbonitrile]: the IC50 is above 1000 nM at PRMT5/MEP50 complex and 1860 nM in experiment [1] (Homo sapiens, HCT-116, 240 h).
Taken in the same sequence, the figures for `N#Cc1c(-c2c(-c3ccc4c(=O)[nH]nc(CN)c4c3)cnn2C(F)F)sc2ccccc12` [Example 19-3, 2-(4-(4-(aminomethyl)-1-oxo-1,2-dihydrophthalazin-6-yl)-1-(difluoromethyl)-1H-pyrazol-5-yl)benzo[b]thiophene-3-carbonitrile] were 308 nM and 149 nM.
As to `Cn1ncc(-c2ccc3c(=O)[nH]nc(CN)c3c2)c1-c1c(F)c(Cl)c2c(c1C#N)OCCC2` (single isomer, unassigned) [Example 16-40, (M)-7-(4-(4-(aminomethyl)-1-oxo-1,2-dihydrophthalazin-6-yl)-1-methyl-1H-pyrazol-5-yl)-5-chloro-6-fluorochroman-8-carbonitrile], the IC50 at PRMT5/MEP50 complex came to 60.1 nM; in experiment [1], 12 nM.
As for `Cn1ncc(-c2ccc3c(=O)[nH]nc(CN)c3c2)c1-c1c(C#N)cc2cccnc2c1Cl` (atropisomer, axis not shown; (P)) [Example 16-83, (P)-7-(4-(4-(aminomethyl)-1-oxo-1,2-dihydrophthalazin-6-yl)-1-methyl-1H-pyrazol-5-yl)-8-chloroquinoline-6-carbonitrile], the figures for the IC50 (at PRMT5/MEP50 complex; in experiment [1]) were 446 nM and 1690 nM, respectively.
Taken in the same sequence, the figures for `Cn1ncc(-c2ccc3c(=O)[nH]nc(CN)c3c2)c1-c1c(C#N)c(OC2CC2)c2ccccc2c1Cl` (single isomer, unassigned) [Example 16-23, (P)-3-[4-[4-(aminomethyl)-1-oxo-2H-phthalazin-6-yl]-2-methyl-pyrazol-3-yl]-4-chloro-1-(cyclopropoxy)naphthalene-2-carbonitrile] were 485 nM and 538 nM.
As for `Cn1ncc(-c2ccc3c(=O)[nH]nc(CN)c3c2)c1-c1c(F)ccc(CC2CC2)c1C#N` (single isomer, unassigned) [Example 16-30, (M)-2-(4-(4-(aminomethyl)-1-oxo-1,2-dihydrophthalazin-6-yl)-1-methyl-1H-pyrazol-5-yl)-6-(cyclopropylmethyl)-3-fluorobenzonitrile], the IC50 on PRMT5/MEP50 complex came to 36.4 nM; in experiment [1] it was 17 nM.
For `Cc1cc(OC2CC2)c(C#N)c(-c2c(-c3cc(Cl)c4c(=O)[nH]nc(CN)c4c3)cnn2C)c1F` (single isomer, unassigned) [Example 16-25, (P)-2-[4-[4-(aminomethyl)-8-chloro-1-oxo-2H-phthalazin-6-yl]-2-methyl-pyrazol-3-yl]-6-(cyclopropoxy)-3-fluoro-4-methyl-benzonitrile], the IC50 at PRMT5/MEP50 complex was found to be 964 nM; in experiment [1], 664 nM.
For `Cn1ncc(-c2cc(Cl)c3c(=O)[nH]nc(CN)c3c2)c1-c1c(F)c(Cl)cc(OC2CC2)c1C#N` (single isomer, unassigned) [Example 16-28, (M)-2-[4-[4-(aminomethyl)-8-chloro-1-oxo-2H-phthalazin-6-yl]-2-methyl-pyrazol-3-yl]-4-chloro-6-(cyclopropoxy)-3-fluoro-benzonitrile] the same measures were 81 nM and 10 nM.
Taken in the same sequence, the figures for `Cn1ncc(-c2ccc3c(=O)[nH]nc(CN)c3c2)c1-c1c(F)cc2c(c1C#N)OCCC2` (atropisomer, axis not shown; (P)) [Example 16-37, (P)-7-[4-[4-(aminomethyl)-1-oxo-2H-phthalazin-6-yl]-2-methyl-pyrazol-3-yl]-6-fluoro-chromane-8-carbonitrile] were 102 nM and 216 nM.
Taken in the same sequence, the figures for `Cn1ncc(-c2ccc3c(=O)[nH]nc(CN)c3c2)c1-c1c(F)cc2c(c1C#N)OCO2` (atropisomer, axis not shown; (M)) [Example 16-88, (M)-5-[4-[4-(aminomethyl)-1-oxo-2H-phthalazin-6-yl]-2-methyl-pyrazol-3-yl]-6-fluoro-1,3-benzodioxole-4-carbonitrile] were 181 nM and 173 nM.
With `Cn1ncc(-c2ccc3c(=O)[nH]nc(CN)c3c2)c1-c1c(C#N)cc2ncccc2c1F` (single isomer, unassigned) [Example 16-91, (P)-6-[4-[4-(aminomethyl)-1-oxo-2H-phthalazin-6-yl]-2-methyl-pyrazol-3-yl]-5-fluoro-quinoline-7-carbonitrile], the values for the IC50 (on PRMT5/MEP50 complex; in experiment [1]) were 454 nM and 2670 nM, respectively.
For the compound `Cn1ncc(-c2ccc3c(=O)[nH]nc(C4(N)CC4)c3c2)c1-c1sc2ccccc2c1C#N` [Example 9-8, 2-(4-(4-(1-aminocyclopropyl)-1-oxo-1,2-dihydrophthalazin-6-yl)-1-methyl-1H-pyrazol-5-yl)benzo[b]thiophene-3-carbonitrile], the IC50 on PRMT5/MEP50 complex is above 10000 nM; in experiment [1] (Homo sapiens, HCT-116, 240 h), 10000 nM.
On to `Cn1ncc(-c2ccc3c(=O)[nH]nc(CN)c3c2)c1-c1c(F)cc2ncc(Cl)cc2c1C#N` (single isomer, unassigned) [Example 16-31, (M)-6-[4-[4-(aminomethyl)-1-oxo-2H-phthalazin-6-yl]-2-methyl-pyrazol-3-yl]-3-chloro-7-fluoro-quinoline-5-carbonitrile], for which the IC50 came to 19.3 nM at PRMT5/MEP50 complex and 16 nM in experiment [1].
Take `COCc1ccc2c(C#N)c(-c3c(-c4ccc5c(=O)[nH]nc(CN)c5c4)cnn3C)sc2c1` [Example 4-271, 2-(4-(4-(aminomethyl)-1-oxo-1,2-dihydrophthalazin-6-yl)-1-methyl-1H-pyrazol-5-yl)-6-(methoxymethyl)benzo[b]thiophene-3-carbonitrile]: the IC50 in experiment [1] (Homo sapiens, HCT-116, 240 h) amounted to 289 nM.
In the case of `Cn1ncc(-c2ccc3c(=O)[nH]nc(C4(N)COC4)c3c2)c1-c1sc2ccccc2c1C#N` [Example 9-9, 2-(4-(4-(3-aminooxetan-3-yl)-1-oxo-1,2-dihydrophthalazin-6-yl)-1-methyl-1H-pyrazol-5-yl)benzo[b]thiophene-3-carbonitrile], the IC50 in experiment [1] (Homo sapiens, HCT-116, 240 h) stood at 10000 nM.
Take `Cn1ncc(-c2ccc3c(=O)[nH]nc(CN)c3c2)c1-c1cccc2c1COCC2(C)O` (atropisomer, axis not shown; (P)) [Example 16-104, (P)-4-(aminomethyl)-6-(5-(4-hydroxy-4-methylisochroman-8-yl)-1-methyl-1H-pyrazol-4-yl)phthalazin-1(21)-one]: in experiment [1], the IC50 worked out at 3450 nM.
Same read-out and setting: under `Cn1ncc(-c2ccc3c(=O)[nH]nc(CN)c3c2)c1-c1cc2ccccn2c1C#N` [Example 4-227, 2-(4-(4-(aminomethyl)-1-oxo-1,2-dihydrophthalazin-6-yl)-1-methyl-1H-pyrazol-5-yl)indolizine-3-carbonitrile] stands 2370 nM.
With `Cn1ncc(-c2ccc3c(=O)[nH]nc(CN)c3c2)c1-c1c(C#N)cc2ncccc2c1Cl` (atropisomer, axis not shown; (M)) [Example 16-86, (M)-6-(4-(4-(aminomethyl)-1-oxo-1,2-dihydrophthalazin-6-yl)-1-methyl-1H-pyrazol-5-yl)-5-chloroquinoline-7-carbonitrile], in experiment [1], the IC50 came to 183 nM.
